The values that follow come from article PMC11289669, “BAR502/fibrate conjugates: synthesis, biological evaluation and metabolic profile” (Frontiers in Chemistry, 2024).

One experiment has as its target T1, GPBAR1 (Homo sapiens, UniProt Q8TDU6).
T1 construct: expressed in transfected cells; host or cells: HEK-293T
T1 sequence (Q8TDU6 1-330): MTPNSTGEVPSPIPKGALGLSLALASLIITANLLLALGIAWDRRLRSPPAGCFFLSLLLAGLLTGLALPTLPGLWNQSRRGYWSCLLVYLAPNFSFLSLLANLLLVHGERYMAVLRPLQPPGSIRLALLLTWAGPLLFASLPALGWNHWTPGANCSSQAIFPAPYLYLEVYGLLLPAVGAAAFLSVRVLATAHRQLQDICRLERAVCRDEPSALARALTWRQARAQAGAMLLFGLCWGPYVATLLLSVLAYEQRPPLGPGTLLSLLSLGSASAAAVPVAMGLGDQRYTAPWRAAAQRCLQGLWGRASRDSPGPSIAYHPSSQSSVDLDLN
The experiment in a line: GPBAR1 transactivation (CRE-luciferase reporter) assay in HEK-293T cells. The class given is cell-based. The settings on record: for Emax: 18 h, read-out: GPBAR1 efficacy (% vs. TLCA); for EC50: transactivation assay, HEK-293T cells. The method, then:
(§1) HepG2 and HEK-293T cells were cultured at 37 °C in minimal essential medium (MEM) and Dulbecco’s Modified Eagle Medium (DMEM) respectively, supplemented with 10% fetal bovine serum, 1% L-glutamine, 100 U/mL penicillin, and 100 μg/mL streptomycin. To investigate FXR-mediated transactivation, the HepG2 cells were transfected with 200 ng of the reporter vector p (hsp27)TK-Luc containing the FXR response element IR1 cloned from the promoter of heat shock protein 27 (hsp27), plus 100 ng pSG5-FXR, 100 ng pSG5-RXR, and 100 ng pGL4.70 Renilla. To evaluate GPBAR1 mediated transactivation, HEK-293T cells were transfected with 200 ng of human pGL4.29 (Promega), a reporter vector containing a cAMP response element (CRE) that drives the transcription of the luciferase reporter gene luc2P, with 100 ng of pCMVSPORT6-human GPBAR1, and with 100 ng of pGL4.70. At 24 h post-transfection, cells were stimulated 18 h with 10 μM TLCA (taurolithocholic acid a GPBAR1 agonist) or CDCA (FXR agonist) and compounds. To calculate the EC50 on FXR and GPBAR1, dose-response curves were performed in HEK-293T cells transfected as described above and then treated with increasing concentrations of compounds (from 0.1 to 50 µM). After treatments, cells were lysed in 100 μL of lysis buffer (25 mM Tris-phosphate, pH 7.8; 2 mM DTT; 10% glycerol; 1% Triton X-100), and 10 μL of cellular lysate was assayed for luciferase activity using the Firfly &Renilla Luciferase assay kit (Biotium). Luminescence was measured using Glomax 20/20 luminometer (Promega). Luciferase activities were assayed and normalized with Renilla activities.
For orientation: Reporter assays use an easily measured gene product as a stand-in for the process of interest.

Another experiment addresses T2, FXR (Homo sapiens, UniProt Q96RI1).
T2 construct: expressed in transfected cells; host or cells: HepG2 (the text says EC50 dose-response curves were run in HEK-293T)
T2 sequence (Q96RI1 1-486): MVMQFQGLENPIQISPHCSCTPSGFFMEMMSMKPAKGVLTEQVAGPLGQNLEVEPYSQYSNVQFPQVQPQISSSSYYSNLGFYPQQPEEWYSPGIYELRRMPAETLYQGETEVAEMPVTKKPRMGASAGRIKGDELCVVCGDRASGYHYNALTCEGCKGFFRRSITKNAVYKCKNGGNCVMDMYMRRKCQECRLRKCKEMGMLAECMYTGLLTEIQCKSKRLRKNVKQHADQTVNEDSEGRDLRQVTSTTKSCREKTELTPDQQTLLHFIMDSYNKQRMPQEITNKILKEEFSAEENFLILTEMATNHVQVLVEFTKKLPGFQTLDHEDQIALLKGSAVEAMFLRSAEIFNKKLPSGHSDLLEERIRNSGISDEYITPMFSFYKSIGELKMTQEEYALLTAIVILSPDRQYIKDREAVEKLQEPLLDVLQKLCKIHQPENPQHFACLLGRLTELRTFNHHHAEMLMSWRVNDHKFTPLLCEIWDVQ
T2 sequence (P19793 1-462 partner): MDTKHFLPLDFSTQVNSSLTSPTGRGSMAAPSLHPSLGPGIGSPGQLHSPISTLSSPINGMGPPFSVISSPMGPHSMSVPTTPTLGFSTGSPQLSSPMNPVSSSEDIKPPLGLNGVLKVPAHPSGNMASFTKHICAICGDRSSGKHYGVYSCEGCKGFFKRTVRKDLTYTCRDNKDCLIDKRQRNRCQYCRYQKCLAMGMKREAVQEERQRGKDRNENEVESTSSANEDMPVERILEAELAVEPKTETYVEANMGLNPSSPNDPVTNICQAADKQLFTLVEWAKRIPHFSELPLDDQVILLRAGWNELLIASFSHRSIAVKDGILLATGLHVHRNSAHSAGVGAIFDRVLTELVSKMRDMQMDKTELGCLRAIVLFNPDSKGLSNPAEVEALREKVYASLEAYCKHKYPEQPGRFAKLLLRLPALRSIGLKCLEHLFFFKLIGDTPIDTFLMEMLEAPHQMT
In words: FXR transactivation (luciferase reporter) assay in HepG2 cells. In kind it is cell-based. Conditions: HepG2 cells. The method, then:
as §1

A further experiment concerns U937 cells. In words: Pro-inflammatory gene expression (qRT-PCR) in LPS-activated U937 cells. The class given is cell-based, human. Conditions: LPS 100 ng/mL, 18 h, compound 1 10 μM; for IL-1β mRNA expression / IL-6 mRNA expression: BAR502 and clofibrate 5 and 10 μM. The method, then:
U937 cell line were cultured in RPMI 1640 supplemented with 10% FBS, 1% glutamine, and 1% penicillin/streptomycin and were regularly passaged to maintain exponential growth. After 24 h of starvation cells were classically activated with LPS (100 ng/mL; Sigma-Aldrich, St. Louis, MO), and exposed or not to BAR502, clofibrate and compound 1 at the concentration of 5 and 10 μM for 18 h. At the end of the experiment the cells were recovered. Total mRNA extraction from U937 and 3T3.L1 was performed using Tri-Reagent (Zymo Research) and Direct-zolTM RNA MiniPrep w/Zymo-SpinTM IIC Columns (Zymo Research, Irvine, CA). After purification from genomic DNA using DNase I (Thermo Fisher Scientific, Waltham, MA), 1 μg of RNA from each sample was reverse transcribed using Kit […] Basic (Nippon Genetics, […] 20-μL of reaction volume; 50 ng of cDNA was amplified in a 20-μL solution containing 200 nM each primer and 10 μL of PowerUpTM SYBRTM Green Master Mix (Thermo Fisher Scientific, Waltham, MA). All reactions were performed in triplicate using the following thermal cycling conditions: 3 min at 95°C, followed by 40 cycles of 95°C for 15 s, 56°C for 20 s, and 72°C for 30 s, using a QuantStudio 3 system (Applied Biosystems, Foster City, CA). The relative mRNA expression was calculated accordingly to the ΔCt method. Primers were designed using the software PRIMER3 (http://frodo.wi.mit.edu/primer3/) using published data obtained from the NCBI database. The primer used were as following (forward and reverse): hGAPDH (for […]-1β (for [NT], hIL6 (for [NT] hCXCL2 (for [NT] hTNFα; (for [NT], mAdiponectin (for […]ɤ (for [NT], mCebp (for [NT]

The mark [1] stands for this setting: transactivation on HEK-293T cells, TLCA 10 μM = 100%.

`CC[C@@H]1C2C[C@H](O)CC[C@]2(C)C2CC[C@@]3(C)C(CC[C@@H]3[C@H](C)CCOC(=O)C(C)(C)Oc3ccc(Cl)cc3)C2[C@@H]1O` (stereo partly drawn) [Compound 1]: on GPBAR1 (setting [1]), the Emax was found to be 145% and the “GPBAR1 efficacy (% vs. TLCA)” value was found to be 145 ± 10%. The molecule further registered an EC50 on GPBAR1 of 370 ± 20 nM. The midpoint of the response on FXR, the EC50, lay at 2800 ± 10 nM. Moreover, in the experiment on U937 cells, the “IL-1β mRNA expression” value is “greatest efficacy in reducing the expression”, the “IL-6 mRNA expression” value is on record as “greatest efficacy in reducing the expression” and the “CXCL2 mRNA expression” value is “the only compound also reducing the expression”.
In the case of `CC[C@H]1[C@@H](O)[C@@H]2[C@H](CC[C@]3(C)[C@@H]([C@H](C)CCO)CC[C@@H]23)[C@@]2(C)CC[C@@H](O)C[C@@H]12` [BAR502, 6α-ethyl-3α,7α-dihydroxy-24-nor-5β-cholan-23-ol], the Emax at GPBAR1 (setting [1]) amounted to 79.5 ± 11.8%. This molecule also returned an EC50 on GPBAR1 of 400 ± 100 nM. Moreover, at FXR, the concentration giving a half-maximal response (EC50) is 2000 ± 200 nM. In the experiment with U937 cells, the “IL-1β mRNA expression” value is reported as “reducing the expression of pro-inflammatory cytokines” and the “IL-6 mRNA expression” value is on record as “reducing the expression of pro-inflammatory cytokines”.

As usually defined, the EC50 is the concentration at which the effect is half-maximal. A higher EC50 goes with a need for much substance.
